Measurements from patent publication US12496284B2, “Use of itaconate and its derivatives/analogues to induce hair growth” (The Johns Hopkins University, priority 2019, dated 2025).
Entries after “also recorded” stand apart in the source; their conditions may differ.

Key:
C57BL6/J mice = experiment: Hair growth (telogen to anagen transition) after topical treatment of shaved mice; type: in vivo; conditions: for hair growth compared with JAK inhibitors: 3% each diluted in DMSO, topical, FIG. 9
Procedure: All adult wild-type (C57BL6/J) mice were approximate 8.5 weeks old and obtained from Jackson Labs (#00664). All animals were maintained in an AAALAC (Accreditation of Laboratory Animal Care International)—approved facility at Johns Hopkins University. All experimental procedures were approved by the Institutional Animal Care and Use Committee at Johns Hopkins under the protocol #MO17M298.
(§1) Adult C57BL6/J mice were treated during the refractory period of hair dormancy (telogen) to allow for hair growth (anagen) re-initiation. To determine the anagen re-entry, mice were grossly observed for skin thickening and darkening. Mice were shaved on their dorsal side and the left half the skin was topically treated with either vehicle (DMSO) or prodrug (20% IS-100-142 (compound 5)) with the right side untreated. The treatment regimen was once every other day for a total of two treatment cycles.
In one aspect, the presently disclosed subject matter is directed to compounds that might be able to enhance hair growth. To this end, the ability of dimethyl itaconate to induce the transition from the resting phase of the hair cycle, telogen, to the growing phase of the hair cycle, anagen, in wild type mice was tested.
Finally, the ability of compound 5 to also induce hair growth as observed for DI was tested. […] Here mice were treated as above, except the left side was treated with either compound 5 or DMSO and the right side was left untreated. The small amount of hair growth in the DMSO treated mouse was from the natural anagen cycle beginning.
as §1, with “All adult wild-type (C57BL6/J) mice were approximate 8.5 weeks old and obtained from Jackson Labs. Animals were fed standard mouse diet. […] Adult” for “Adult”, “right” for “left”, “dimethyl itaconate (20%) or with 1% compound 5, 2% compound 5 or 5% compound 5” for “prodrug (20% IS-100-142 (compound 5))”, “left” for “right”, “or three treatments with similar results.” for “treatment cycles.”

TLR3/IL6/STAT3 axis = experiment: Treatment of human keratinocytes (NHEKs) with itaconate prodrugs, poly(I:C) challenge, qRT-PCR; type: cell-based; conditions: NHEKs pre-treated 2 days, then poly(I:C) for 24 hours, mRNA by qRT-PCR, FIG. 4, FIG. 6
Procedure: Neonatal human epidermal keratinocytes (NHEKs) isolates from neonatal foreskin were seeded at a density of 100,000 cells per well and were maintained in KGM supplemented with growth factors (KGM-GOLD Bullet kit, #192060). Prodrugs were reconstituted in DMSO. NHEKs were pre-treated with either vehicle (0.1% DMSO) or prodrug. After 2 days, NHEKs were treated with […] poly(I:C) for 24 hours.
Total RNA was isolated and purified from cultured NHEKs using the RNeasy Mini Kit (Qiagen, Valencia, CA, #74106). After assessing RNA purity and concentrations using a NanoDrop 2000 UV-Vis spectrophotometer, RNA was converted to cDNA using a reverse-transcription kit and random hexamer primers (Applied Biosystems, #4368814). mRNA expression was determined by qRT-PCR using gene-specific, fluorophore-based TaqMan probes and universal master mix (Applied Biosystems, #4366072). The qRT-PCR reactions were multiplexed using target and reference gene (RPLPO) probes. Relative mRNA fold changes were then quantified using the […] method.
Next, whether itaconate derivatives, such as itaconate prodrugs, have this same capacity was tested. To screen for compounds, those that behaved in vitro with similar properties to itaconate were evaluated. First, the molecular effect of dimethyl itaconate (DI) to blunt dsRNA (PIC; Polyinosinic:polycytidylic acid) effect at increasing TLR3, IL-6, and STAT3 expression was tested.
Next, the ability of synthesized itaconate prodrugs to behave similarly in the in vitro assay was tested. […] Methods are as above, but substituting the […].

[1] = Mouse skin penetration in Alopecia model; type: in vivo; conditions: dose 5% w/v
From the text: Referring now to FIG. 12, mouse skin penetration in an Alopecia model for IS-100-142 (compound 5) (left panel) and monomethyl itaconate (right panel) is shown.

| SMILES | hair growth compared with JAK inhibitors (C57BL6/J mice) | transition from telogen (resting phase) to anagen (growing phase) of the hair cycle (C57BL6/J mice; 20% dimethyl itaconate, wild type mice, FIG. 5) | inhibition of dsRNA (poly(I:C)) effect at increasing TLR3, IL-6 and STAT3 expression (downstream gene targets TLR3, IL6, STAT3, WNT7B) (TLR3/IL6/STAT3 axis) | inhibition of dsRNA (poly(I:C)) effect at increasing TLR3, IL-6 and STAT3 expression (downstream gene targets TLR3, IL6, STAT3, WNT7B) (TLR3/IL6/STAT3 axis; listed as DI) | intact prodrug levels, skin versus plasma ([1]; topical application in DMSO, FIG. 12 left panel) | monomethyl itaconate levels, skin versus plasma ([1]; topical application of IS-100-142 in DMSO, FIG. 12 right panel) | transition of hair follicle from telogen to anagen (hair growth) (C57BL6/J mice; 1%, 2% or 5% compound 5 topical on right half of skin, once every other day, two or three treatments, FIG. 8) | hair growth (C57BL6/J mice; 20% compound 5 in DMSO, topical on left half of shaved dorsal skin, once every other day, two treatment cycles, FIG. 7) | inhibition of dsRNA (poly(I:C)) effect at increasing TLR3, IL-6 and STAT3 expression (downstream gene targets TLR3, IL6, STAT3, WNT7B) (TLR3/IL6/STAT3 axis; listed as IS-100-142) |
| --- | --- | --- | --- | --- | --- | --- | --- | --- | --- |
| C[C@@H]1CCN(C(=O)CC#N)C[C@@H]1N(C)c1ncnc2[nH]ccc12 [Tofacitinib, reference compound] | comparable levels |  |  |  |  |  |  |  |  |
| C=C(CC(=O)OC)C(=O)OC [dimethyl itaconate, reference compound] |  | potently induced this transition; also recorded: induces the transition | blunt dsRNA | potently inhibits those markers |  |  |  |  |  |
| C=C(CC(=O)OC)C(=O)OCOC(=O)OC(C)C [Compound 5] | comparable levels as Ruxolitinib and Tofacitinib |  | potently inhibited the same dsRNA response as DI |  | higher in skin versus plasma | higher in skin versus plasma | promote transition of hair follicle from telogen (quiescence phase) to anagen (growing phase); also recorded: induces hair growth | induces hair growth | inhibits JAK-STAT signaling most effectively |
